Assay results published in US8076520B2, “Phosphatidyl oligoglycerols” (Max-Planck-Gesellschaft zur Forderung der Wissenschaften …, priority 1996, dated 2011).

How the values were obtained:
[1] = Behaviour of PP-G-PGn lipids in water (additional properties); format: physicochemical; settings: for behaviour when heated in water: heated above 40° C. in water; for stability of the lamellar phases: low temperatures; for time until transition from the isotropic to the anisotropic phase is recognizable: room temperature; for behaviour when the temperature falls: temperature below 40° C.
Excerpt: As the number of glycerol molecules increases, the number of free hydroxyl groups and thus also the polarity increases. […] Whereas the transition from the isotropic to the anisotropic phase at room temperature is recognizable after a few minutes with PP-G-PG2, it takes several hours for PP-G-PG3. The differences in polarity are also evident from the different retention factors (Rf) in the thin-layer chromatogram on silica gel.

[2] = in vivo
Description: In an animal experiment, liposomes were used which consisted of 40 mol % cholesterol, 10 mol % phosphatidylglycerol and 50% dipalmitoyl lecithin.
Liposomes of the same composition were prepared, in which the phosphatidylglycerol was replaced by a phosphatidylglycerol G2 of the invention. […] This linear relation was observed irrespective of the size of the liposomes. The same linear reduction in serum liposome concentration was found with 50 nm liposomes and with 150 nm liposomes. The linear reduction in blood liposome concentration was also observed for different starting concentrations.

Row | time until transition from the isotropic to the anisotropic phase is recognizable [1] | solution formed in water ([1]; proportion of 5% in water) | half-life in serum [2] [h] | Substance | behaviour when heated in water [1] | stability of the lamellar phases [1] | behaviour when the temperature falls [1] | persistence characteristic (decrease of liposomes in serum with time) [2]
1 | several hours | – | – | 1.2-dipalmitoyl-sn-glycero-3-phospho-G1-G2-G3 [PP-G-PG3] | dissolve when heated above 40 °C in water and form superstructures | remain stable even at low temperatures (down to 4° C.) | lamellar structures with differently pronounced hystereses are formed | –
2 | a few minutes | – | – | 1.2-dipalmitoyl-sn-glycero-3-phospho-G1-G2 [PP-G-PG2] | dissolve when heated above 40 °C in water and form superstructures | remain stable even at low temperatures (down to 4° C.) | lamellar structures with differently pronounced hystereses are formed | –
3 | – | clear isotropic solution | – | 1.2-dipalmitoyl-sn-glycero-3-phospho-G1-G2-G3-G4 [PP-G-PG4] | – | – | – | –
4 | – | – | 4 | phosphatidylglycerol | – | – | – | a rapid decrease to start with, followed by a slower decrease
